Measured values from patent US12077503B2, “Substituted cyclic amides and their use as herbicides” (FMC CORPORATION, priority 2015, dated 2024).

What was measured:
Type in all cases: in vivo
[1] = test system: barnyardgrass (Echinochloa crus-galli); experiment: Test G Pre-Emergence Protocol; conditions: Echinochloa crus-galli, pre-emergence, 312 h, evaluated after 13 days; for pest or weed control at 15.625 g/ha: 15.625 g ai/ha, read-out: Barnyard grass damage rating (100=total damage to plant; 0=no damage to plant); for pest or weed control at 62.5 g/ha: 62.5 g ai/ha, 100=total damage to plant, 0=no damage to plant, read-out: plant damage rating, Barnyardgrass; for pest or weed control at 250 g/ha: 250 g ai/ha, read-out: Barnyardgrass damage rating (100=total damage to plant; 0=no damage to plant)
How it was run: (§1)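 Glasshouse pre-emergence test: soil-sown seeds, sprayed after 1 d at 15.625, 62.5 or 250 g/ha. Conditions 24/16° C day/night, 14 h light, 65% humidity, watering twice daily. Rating 13 d post-spray (100 = total damage).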

[2] = test system: redroot pigweed (Amaranthus retroflexus); experiment: Test G Pre-Emergence Protocol; conditions: Amaranthus retroflexus, pre-emergence, 312 h, evaluated after 13 days; for pest or weed control at 15.625 g/ha: 15.625 g ai/ha; for pest or weed control at 15.625 g/ha / pest or weed control at 250 g/ha: read-out: Pigweed, Redroot damage rating (100=total damage to plant; 0=no damage to plant); for pest or weed control at 62.5 g/ha: 62.5 g ai/ha, 100=total damage to plant, 0=no damage to plant, read-out: plant damage rating, Pigweed, Redroot; for pest or weed control at 250 g/ha: 250 g ai/ha
How it was run: as §1

[3] = test system: ivy-leaved morning glory (Ipomoea hederacea); experiment: Test G Pre-Emergence Protocol; conditions: Ipomoea, pre-emergence, 312 h, evaluated after 13 days; for pest or weed control at 15.625 g/ha: 15.625 g ai/ha, read-out: Morning-glory, Ivy-leaved damage rating (100=total damage to plant; 0=no damage to plant); for pest or weed control at 62.5 g/ha: 62.5 g ai/ha, 100=total damage to plant, 0=no damage to plant, read-out: plant damage rating, Morningglory, Ivy-leaved; for pest or weed control at 250 g/ha: 250 g ai/ha, read-out: Morningglory, Ivy-leaved damage rating (100=total damage to plant; 0=no damage to plant)
How it was run: as §1

corn (Zea mays) [4] = experiment: Test G Pre-Emergence Protocol; conditions: Zea mays, pre-emergence, 312 h, evaluated after 13 days; for plant injury at 15.625 g/ha: 15.625 g ai/ha; for plant injury at 15.625 g/ha / plant injury at 250 g/ha: read-out: Corn damage rating (100=total damage to plant; 0=no damage to plant); for plant injury at 62.5 g/ha: 62.5 g ai/ha, 100=total damage to plant, 0=no damage to plant, read-out: plant damage rating, Corn; for plant injury at 250 g/ha: 250 g ai/ha
How it was run: as §1

[5] = test system: velvetleaf (Abutilon theophrasti); experiment: Test G Pre-Emergence Protocol; conditions: Abutilon theophrasti, pre-emergence, 312 h, evaluated after 13 days; for pest or weed control at 15.625 g/ha: 15.625 g ai/ha; for pest or weed control at 15.625 g/ha / pest or weed control at 250 g/ha: read-out: Velvetleaf damage rating (100=total damage to plant; 0=no damage to plant); for pest or weed control at 62.5 g/ha: 62.5 g ai/ha, 100=total damage to plant, 0=no damage to plant, read-out: plant damage rating, Velvetleaf; for pest or weed control at 250 g/ha: 250 g ai/ha
How it was run: as §1

[6] = test system: giant foxtail (Setaria faberi); experiment: Test G Pre-Emergence Protocol; conditions: Setaria faberi, pre-emergence, 312 h, evaluated after 13 days; for pest or weed control at 15.625 g/ha: 15.625 g ai/ha; for pest or weed control at 15.625 g/ha / pest or weed control at 250 g/ha: read-out: Foxtail, Giant damage rating (100=total damage to plant; 0=no damage to plant); for pest or weed control at 62.5 g/ha: 62.5 g ai/ha, 100=total damage to plant, 0=no damage to plant, read-out: plant damage rating, Foxtail, Giant; for pest or weed control at 250 g/ha: 250 g ai/ha
How it was run: as §1

[7] = test system: barnyardgrass (Echinochloa crus-galli); experiment: Test G Post-Emergence Protocol; conditions: Echinochloa crus-galli, post-emergence, 312 h; for pest or weed control at 15.625 g/ha: 15.625 g ai/ha, evaluated after 13 days (100=total damage to plant; 0=no damage to plant), read-out: Barnyardgrass damage rating; for pest or weed control at 62.5 g/ha: 62.5 g ai/ha, read-out: Barnyardgrass damage rating (100=total damage to plant; 0=no damage to plant); for pest or weed control at 62.5 g/ha / pest or weed control at 250 g/ha: evaluated after 13 days; for pest or weed control at 250 g/ha: 250 g ai/ha, read-out: damage to plant, Barnyardgrass (100=total damage to plant; 0=no damage to plant)
How it was run: (§2)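 Foliar application was made 8 days after sowing, using an aqueous spray of the active in acetone/water (50:50) with 0.5% Tween 20, at doses of 15.625, 62.5 or 250 g/ha. Injury was assessed 13 days later, where 100 meant the plant was fully damaged.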

[8] = test system: redroot pigweed (Amaranthus retroflexus); experiment: Test G Post-Emergence Protocol; conditions: Amaranthus retroflexus, post-emergence, 312 h; for pest or weed control at 15.625 g/ha: 15.625 g ai/ha, evaluated after 13 days (100=total damage to plant; 0=no damage to plant), read-out: Pigweed, Redroot damage rating; for pest or weed control at 62.5 g/ha: 62.5 g ai/ha, read-out: Pigweed, Redroot damage rating (100=total damage to plant; 0=no damage to plant); for pest or weed control at 62.5 g/ha / pest or weed control at 250 g/ha: evaluated after 13 days; for pest or weed control at 250 g/ha: 250 g ai/ha, read-out: damage to plant, Pigweed, Redroot (100=total damage to plant; 0=no damage to plant)
How it was run: as §2

[9] = test system: ivy-leaved morning glory (Ipomoea hederacea); experiment: Test G Post-Emergence Protocol; conditions: Ipomoea, post-emergence, 312 h; for pest or weed control at 15.625 g/ha: 15.625 g ai/ha, evaluated after 13 days (100=total damage to plant; 0=no damage to plant), read-out: Morningglory, Ivy-leaved damage rating; for pest or weed control at 62.5 g/ha: 62.5 g ai/ha, read-out: Morningglory, Ivy-leaved damage rating (100=total damage to plant; 0=no damage to plant); for pest or weed control at 62.5 g/ha / pest or weed control at 250 g/ha: evaluated after 13 days; for pest or weed control at 250 g/ha: 250 g ai/ha, read-out: damage to plant, Morningglory, Ivy-leaved (100=total damage to plant; 0=no damage to plant)
How it was run: as §2

corn (Zea mays) [10] = experiment: Test G Post-Emergence Protocol; conditions: Zea mays, post-emergence, 312 h; for plant injury at 15.625 g/ha: 15.625 g ai/ha, evaluated after 13 days (100=total damage to plant; 0=no damage to plant), read-out: Corn damage rating; for plant injury at 62.5 g/ha: 62.5 g ai/ha, read-out: Corn damage rating (100=total damage to plant; 0=no damage to plant); for plant injury at 62.5 g/ha / plant injury at 250 g/ha: evaluated after 13 days; for plant injury at 250 g/ha: 250 g ai/ha, read-out: damage to plant, Corn (100=total damage to plant; 0=no damage to plant)
How it was run: as §2

[11] = test system: velvetleaf (Abutilon theophrasti); experiment: Test G Post-Emergence Protocol; conditions: Abutilon theophrasti, post-emergence, 312 h; for pest or weed control at 15.625 g/ha: 15.625 g ai/ha, evaluated after 13 days (100=total damage to plant; 0=no damage to plant), read-out: Velvetleaf damage rating; for pest or weed control at 62.5 g/ha: 62.5 g ai/ha, read-out: Velvetleaf damage rating (100=total damage to plant; 0=no damage to plant); for pest or weed control at 62.5 g/ha / pest or weed control at 250 g/ha: evaluated after 13 days; for pest or weed control at 250 g/ha: 250 g ai/ha, read-out: damage to plant, Velvetleaf (100=total damage to plant; 0=no damage to plant)
How it was run: as §2

[12] = test system: giant foxtail (Setaria faberi); experiment: Test G Post-Emergence Protocol; conditions: Setaria faberi, post-emergence, 312 h; for pest or weed control at 15.625 g/ha: 15.625 g ai/ha, evaluated after 13 days (100=total damage to plant; 0=no damage to plant), read-out: Foxtail, Giant damage rating; for pest or weed control at 62.5 g/ha: 62.5 g ai/ha, read-out: Foxtail, Giant damage rating (100=total damage to plant; 0=no damage to plant); for pest or weed control at 62.5 g/ha / pest or weed control at 250 g/ha: evaluated after 13 days; for pest or weed control at 250 g/ha: 250 g ai/ha, read-out: damage to plant, Foxtail, Giant (100=total damage to plant; 0=no damage to plant)
How it was run: as §2

Compound | pest or weed control at 15.625 g/ha [1] [%] | pest or weed control at 62.5 g/ha [1] [%] | pest or weed control at 250 g/ha [1] [%] | pest or weed control at 15.625 g/ha [2] [%] | pest or weed control at 62.5 g/ha [2] [%] | pest or weed control at 250 g/ha [2] [%] | pest or weed control at 15.625 g/ha [3] [%] | pest or weed control at 62.5 g/ha [3] [%] | pest or weed control at 250 g/ha [3] [%] | plant injury at 15.625 g/ha (corn (Zea mays) [4]) [%] | plant injury at 62.5 g/ha (corn (Zea mays) [4]) [%] | plant injury at 250 g/ha (corn (Zea mays) [4]) [%] | pest or weed control at 15.625 g/ha [5] [%] | pest or weed control at 62.5 g/ha [5] [%] | pest or weed control at 250 g/ha [5] [%] | pest or weed control at 15.625 g/ha [6] [%] | pest or weed control at 62.5 g/ha [6] [%] | pest or weed control at 250 g/ha [6] [%] | pest or weed control at 15.625 g/ha [7] [%] | pest or weed control at 62.5 g/ha [7] [%] | other results
CN1C[C@@H](c2cc(Cl)nc(Cl)c2)[C@H](C(=O)Nc2cccc(F)c2F)C1=O (racemic) [Compound 1494] | 80 | 80 | 90 | 0 | 0 | 30 | 0 | 0 | 70 | 0 | 20 | 60 | 0 | 0 | 0 | 70 | 80 | 80 | 30 | 60 | pest or weed control at 250 g/ha [7]: 50%; pest or weed control at 15.625 g/ha [8]: 0%; pest or weed control at 62.5 g/ha [8]: 0%; pest or weed control at 250 g/ha [8]: 0%; pest or weed control at 15.625 g/ha [9]: 10%; pest or weed control at 62.5 g/ha [9]: 40%; pest or weed control at 250 g/ha [9]: 50%; plant injury at 15.625 g/ha (corn (Zea mays) [10]): 10%; plant injury at 62.5 g/ha (corn (Zea mays) [10]): 30%; plant injury at 250 g/ha (corn (Zea mays) [10]): 80%; pest or weed control at 15.625 g/ha [11]: 0%; pest or weed control at 62.5 g/ha [11]: 0%; pest or weed control at 250 g/ha [11]: 30%; pest or weed control at 15.625 g/ha [12]: 60%; pest or weed control at 62.5 g/ha [12]: 60%; pest or weed control at 250 g/ha [12]: 60%
CN1C[C@H](c2ccc3c(c2)OCCO3)[C@@H](C(=O)Nc2cccc(F)c2F)C1=O (racemic) [Compound 1490] | 0 | 50 | 80 | 0 | 0 | 0 | 0 | 0 | 0 | 0 | 0 | 10 | 0 | 0 | 0 | 0 | 40 | 90 | 50 | 60 | pest or weed control at 250 g/ha [7]: 60%; pest or weed control at 15.625 g/ha [8]: 0%; pest or weed control at 62.5 g/ha [8]: 0%; pest or weed control at 250 g/ha [8]: 0%; pest or weed control at 15.625 g/ha [9]: 0%; pest or weed control at 62.5 g/ha [9]: 0%; pest or weed control at 250 g/ha [9]: 30%; plant injury at 15.625 g/ha (corn (Zea mays) [10]): 0%; plant injury at 62.5 g/ha (corn (Zea mays) [10]): 30%; plant injury at 250 g/ha (corn (Zea mays) [10]): 40%; pest or weed control at 15.625 g/ha [11]: 0%; pest or weed control at 62.5 g/ha [11]: 0%; pest or weed control at 250 g/ha [11]: 20%; pest or weed control at 15.625 g/ha [12]: 50%; pest or weed control at 62.5 g/ha [12]: 60%; pest or weed control at 250 g/ha [12]: 60%
